Experimental data taken from paper PMC9855884, “Glycosylated Lipopeptides—Synthesis and Evaluation of Antimicrobial Activity and Cytotoxicity” (Biomolecules, 2023).
Converted amounts (≈) assume the structure as drawn. Where a SMILES comes first, the peptide text is derived from it. The star is where a group is joined. βGlcNAc = CC(=O)N[C@@H]1[C@@H](O)[C@H](O)[C@@H](CO)O[C@H]1*; Stearoyl = CCCCCCCCCCCCCCCCCC(=O)*; Palmitoyl = CCCCCCCCCCCCCCCC(=O)*; Myristoyl = CCCCCCCCCCCCCC(=O)*

Assays:
[1] = system: K. aerogenes ATCC 13048; format: cell-based, Klebsiella aerogenes; conditions: ATCC 13048, 18 h
Method: The Acinetobacter baumannii ATCC BAA-1605, Enterococcus faecium ATCC 700221, Klebsiella aerogenes ATCC 13048, Klebsiella pneumoniae ATCC 700603, Pseudomonas aeruginosa ATCC 9027, Staphylococcus aureus ATCC 33591, Candida glabrata ATCC 15126, strains were acquired from the American Type Culture Collection (ATCC). All the strains were stored at −80 °C in Roti-Store cryo vials and were transferred into fresh Mueller–Hinton broth (MHB, Becton Dickinson, Warsaw, Poland) for bacteria or RPMI-1640 (Sigma-Aldrich, Steinheim, Germany) for fungi before the tests and incubated for 24 h at 37 °C. Then, the cultures were seeded on the Mueller–Hinton agar (BioMaxima, Lublin, Poland) or Sabouraud dextrose agar (SDA, BioMaxima, Lublin, Poland) plates, respectively, and incubated as just mentioned. These agar cultures were used for further microbiological assays. Cell densities for all assays were adjusted spectrophotometrically (Multiskan GO Microplate Spectrophotometer, Thermo Fisher Scientific, Vantaa, Finland) at 600 and 530 nm for bacteria and fungi, respectively.
The MICs were determined using a broth microdilution method according to the Clinical and Laboratory Standard Institute guidelines. For this purpose, initial inoculums of bacteria (5 × 10^5 CFU/mL) in MHB and yeasts (2 × 10^3 CFU/mL) in RPMI-1640 with 2% D-glucose were exposed to the ranging concentration of lipopeptides (1–512 μg/mL) and incubated at 37 °C for 18 h and 24 h, respectively. The experiments were conducted on 96-well microtiter polystyrene plates (Kartell, Italy). The growth was assessed visually after incubation and the MIC was assumed as the lowest peptide concentration at which a noticeable growth of microorganisms was inhibited. All experiments were conducted in triplicate.

[2] = system: human red blood cells (RBCs); assay: Hemolysis assay; format: cell-based; conditions: human RBCs 4% (v/v) in PBS, 60 min, 37 °C, absorbance 540 nm, 1–512 µg/mL; triplicate
Method: The hemolysis assay was conducted using a procedure described previously. For this purpose, fresh human red blood cells (RBCs) with EDTA anticoagulant were washed three times with phosphate-buffer saline (PBS) using centrifugation at 800× g for 10 min and resuspended in PBS. Then, the stock solution of RBCs was added to serial dilution of peptides on 96-well polystyrene plates to reach a final volume of 100 µL with 4% concentration of erythrocytes (v/v) over the concentration range of 1–512 µg/mL of the tested compounds. The control wells for the 0% and 100% hemolysis consisted of RBCs suspended in PBS and 1% of Triton X–100, respectively. Subsequently, the plates were incubated for 60 min at 37 °C and then centrifuged at 800× g for 10 min at 4 °C (Sorvall ST 16R Centrifuge, Thermo Scientific, Osterode am Harz, Germany). After centrifugation, the supernatant was carefully […] to new microtiter plates and the release of hemoglobin was monitored through absorbance measurements at 540 nm (Multiskan™ GO Microplate Spectrophotometer, Thermo Scientific). All experiments were conducted in triplicate.
The lipopeptides were tested against human erythrocytes in order to evaluate their hemolytic activity. Moreover, selectivity indexes (SI) were calculated by dividing the HC50 by MIC. […] In some cases, glycosylation led to suppressed toxicity, e.g., a comparison of C14 peptides analogs: 1–3 and 10–12. On the other hand, an increase in toxicity of C18 analogs (7–9 vs. 16–18) was found for glycosylated USCLs. For this reason, SI was calculated to provide a correlation between antimicrobial activity and toxicity. […] Among gUSCLs: 10 and 11 with C14 fatty acid and 16–18 should be highlighted owing to their high selectivity against E. fecium and C. glabrata.

[3] = MTT assay, cytotoxicity; format: cell-based, human; conditions: human, HaCaT keratinocytes, 24 h incubation at 37 °C, 0.5–500 μg/mL, six replicates per concentration, repeated at least twice
Method: To evaluate the cytotoxicity of the test peptides (IC50), the classic MTT assay on 96-well plates was performed for human keratinocytes (HaCaT) which were acquired from the ATCC. The assay was based on colorimetric determination of the cell metabolic activity where the color intensity reflected the number of live cells that could be measured spectrophotometrically. The cell line was cultured in a Dulbecco’s modified Eagle Medium (Invitrogen) supplemented with 10% fetal bovine serum (v/v), 100 units/mL of penicillin, 100 μg/mL of streptomycin, and 2 mM L-glutamine and was kept at 37 °C in a humidified 5% CO2 incubator. Briefly, a day after plating of 500 cells per well, a series of concentrations (0.5–500 μg/mL) of the test compounds were applied. DMSO was added to the control cells at a final concentration of 1.0% (v/v), which was related to the maximum concentration of the solvent compounds used in the experiment. After 24 h of incubation at 37 °C (humidified 5% CO2 incubator) with the peptides, a medium containing 1 mg/mL of MTT was added to the wells up to a final concentration of 0.5 mg/mL. Subsequently, the plates were incubated at 37 °C for 4 h. Then, the medium was aspirated, and the formazan product was solubilized with DMSO. The background absorbance at 630 nm was subtracted from that at 570 nm for each well (Epoch, BioTek Instruments, Winooski, VT, USA). Six replicates were conducted for each concentration. All experiments were repeated at least twice and the resulting IC50 values were calculated with a GraFit 7 software (v. 7.0, Erithacus, Berkley, CA, USA).
The selectivity indexes were calculated for all the strains as IC50/MIC. According to IC50, in most cases, glycosylation caused only a slight decrease in toxicity. However, in contrast with SI calculated for HC50, the differences between USCLs and gUSCLs are not so distinct. […] Moreover, toxicity of USCLs and gUSCLs is high and exceeds their antimicrobial activity. The lipopetides were not selective against Gram-negative strains (K. pneumoniae, A. baumannii, P. aeruginosa, K. aerogenes) over human cells. A few USCLs were selective (SI > 1) against E. faecium and S. aureus with SI up to 1.87; and some gUSCLs were selective against E. faecium but not against S. aureus, with SI between 0.63 and 1.73. […] In this case, SI of gUSCLs was noticeably […] than that of corresponding parent USCLs (2.07, 1.99, 2.67 vs. 2.53, 2.36, 3.46, respectively). Selectivity indexes were plotted against adjusted retention time (Figures S15–S21). A moderate linear correlation was found in USCLs and K. pneumoniae, C. glabrata, and gUSCLs and K. pneumoniae, K. aerogenes (R^2 between 0.6064 and 0.6481). A relatively high linear correlation was obtained for USCLs and K. aerogenes (R^2 of 0.8214) and also for gUSCLs and C. glabrata (R^2 of 0.9223).

Row | Structure (SMILES) | MIC [1] [µg/mL] | HC50 (hemolytic activity) [2] [µg/mL] | IC50 at 24 h [3] [µg/mL]
1 | CCCCCCCCCCCCCCCC(=O)N[C@@H](CCCNC(=N)N)C(=O)N[C@@H](CCCNC(=N)N)C(=O)N[C@@H](CO[C@@H]1O[C@H](CO)[C@@H](O)[C@H](O)[C@H]1NC(C)=O)C(N)=O [Peptide 15, C16-RRS(GlcNAc)-NH2] (Palmitoyl-Arg-Arg-Ser(βGlcNAc)-NH2) | 256 (≈ 298 µM) | 111.45 ± 11.65 | 5.16 ± 1.32 (≈ 6.01 µM)
2 | CCCCCCCCCCCCCCCCCC(=O)N[C@@H](CCCNC(=N)N)C(=O)N[C@@H](CO[C@@H]1O[C@H](CO)[C@@H](O)[C@H](O)[C@H]1NC(C)=O)C(=O)N[C@@H](CCCNC(=N)N)C(N)=O [Peptide 17, C18-RS(GlcNAc)R-NH2] (Stearoyl-Arg-Ser(βGlcNAc)-Arg-NH2) | 32 (≈ 36.1 µM) | 45.25 ± 0.59 | 9.45 ± 0.89 (≈ 10.7 µM)
3 | CCCCCCCCCCCCCCCCCC(=O)N[C@@H](CO)C(=O)N[C@@H](CCCNC(=N)N)C(=O)N[C@@H](CCCNC(=N)N)C(N)=O [Peptide 7, C18-SRR-NH2] (Stearoyl-Ser-Arg-Arg-NH2) | 16 (≈ 23.4 µM) | 82.31 ± 1.36 | 8.28 ± 1.18 (≈ 12.1 µM)
4 | CCCCCCCCCCCCCCCC(=O)N[C@@H](CCCNC(=N)N)C(=O)N[C@@H](CO)C(=O)N[C@@H](CCCNC(=N)N)C(N)=O [Peptide 5, C16-RSR-NH2] (Palmitoyl-Arg-Ser-Arg-NH2) | 32 (≈ 48.9 µM) | 82.21 ± 2.07 | 5.72 ± 2.27 (≈ 8.73 µM)
5 | CCCCCCCCCCCCCCCCCC(=O)N[C@@H](CCCNC(=N)N)C(=O)N[C@@H](CCCNC(=N)N)C(=O)N[C@@H](CO[C@@H]1O[C@H](CO)[C@@H](O)[C@H](O)[C@H]1NC(C)=O)C(N)=O [Peptide 18, C18-RRS(GlcNAc)-NH2] (Stearoyl-Arg-Arg-Ser(βGlcNAc)-NH2) | 32 (≈ 36.1 µM) | 48.04 ± 2.45 | 13.8 ± 1.71 (≈ 15.6 µM)
6 | CCCCCCCCCCCCCC(=O)N[C@@H](CO[C@@H]1O[C@H](CO)[C@@H](O)[C@H](O)[C@H]1NC(C)=O)C(=O)N[C@@H](CCCNC(=N)N)C(=O)N[C@@H](CCCNC(=N)N)C(N)=O [Peptide 10, C14-S(GlcNAc)RR-NH2] (Myristoyl-Ser(βGlcNAc)-Arg-Arg-NH2) | >512 | >512 | 32.1 ± 6.26 (≈ 38.7 µM)
7 | CCCCCCCCCCCCCCCC(=O)N[C@@H](CCCNC(=N)N)C(=O)N[C@@H](CO[C@@H]1O[C@H](CO)[C@@H](O)[C@H](O)[C@H]1NC(C)=O)C(=O)N[C@@H](CCCNC(=N)N)C(N)=O [Peptide 14, C16-RS(GlcNAc)R-NH2] (Palmitoyl-Arg-Ser(βGlcNAc)-Arg-NH2) | 64 (≈ 74.6 µM) | 73.34 ± 1.63 | 14.1 ± 3.48 (≈ 16.4 µM)
8 | CCCCCCCCCCCCCC(=O)N[C@@H](CCCNC(=N)N)C(=O)N[C@@H](CCCNC(=N)N)C(=O)N[C@@H](CO)C(N)=O [Peptide 3, C14-RRS-NH2] (Myristoyl-Arg-Arg-Ser-NH2) | 512 (≈ 817 µM) | 227.01 ± 5.69 | 14.3 ± 1.96 (≈ 22.8 µM)
9 | CCCCCCCCCCCCCCCC(=O)N[C@@H](CO)C(=O)N[C@@H](CCCNC(=N)N)C(=O)N[C@@H](CCCNC(=N)N)C(N)=O [Peptide 4, C16-SRR-NH2] (Palmitoyl-Ser-Arg-Arg-NH2) | 16 (≈ 24.4 µM) | 75.46 ± 0.73 | 4.02 ± 1.17 (≈ 6.14 µM)
10 | CCCCCCCCCCCCCCCCCC(=O)N[C@@H](CCCNC(=N)N)C(=O)N[C@@H](CCCNC(=N)N)C(=O)N[C@@H](CO)C(N)=O [Peptide 9, C18-RRS-NH2] (Stearoyl-Arg-Arg-Ser-NH2) | 32 (≈ 46.9 µM) | 94.31 ± 2.64 | 10.7 ± 1.61 (≈ 15.6 µM)
11 | CCCCCCCCCCCCCCCC(=O)N[C@@H](CO[C@@H]1O[C@H](CO)[C@@H](O)[C@H](O)[C@H]1NC(C)=O)C(=O)N[C@@H](CCCNC(=N)N)C(=O)N[C@@H](CCCNC(=N)N)C(N)=O [Peptide 13, C16-S(GlcNAc)RR-NH2] (Palmitoyl-Ser(βGlcNAc)-Arg-Arg-NH2) | 512 (≈ 597 µM) | 95.39 ± 2.40 | 10.6 ± 2.04 (≈ 12.4 µM)
12 | CCCCCCCCCCCCCCCC(=O)N[C@@H](CCCNC(=N)N)C(=O)N[C@@H](CCCNC(=N)N)C(=O)N[C@@H](CO)C(N)=O [Peptide 6, C16-RRS-NH2] (Palmitoyl-Arg-Arg-Ser-NH2) | 64 (≈ 97.7 µM) | 75.95 ± 1.57 | 7.84 ± 1.44 (≈ 12 µM)
13 | CCCCCCCCCCCCCC(=O)N[C@@H](CCCNC(=N)N)C(=O)N[C@@H](CO[C@@H]1O[C@H](CO)[C@@H](O)[C@H](O)[C@H]1NC(C)=O)C(=O)N[C@@H](CCCNC(=N)N)C(N)=O [Peptide 11, C14-RS(GlcNAc)R-NH2] (Myristoyl-Arg-Ser(βGlcNAc)-Arg-NH2) | >512 | 364.17 ± 105.10 | 25.2 ± 3.47 (≈ 30.3 µM)
14 | CCCCCCCCCCCCCCCCCC(=O)N[C@@H](CCCNC(=N)N)C(=O)N[C@@H](CO)C(=O)N[C@@H](CCCNC(=N)N)C(N)=O [Peptide 8, C18-RSR-NH2] (Stearoyl-Arg-Ser-Arg-NH2) | 32 (≈ 46.9 µM) | 335.12 ± 73.39 | 7.97 ± 1.51 (≈ 11.7 µM)
15 | CCCCCCCCCCCCCC(=O)N[C@@H](CCCNC(=N)N)C(=O)N[C@@H](CCCNC(=N)N)C(=O)N[C@@H](CO[C@@H]1O[C@H](CO)[C@@H](O)[C@H](O)[C@H]1NC(C)=O)C(N)=O [Peptide 12, C14-RRS(GlcNAc)-NH2] (Myristoyl-Arg-Arg-Ser(βGlcNAc)-NH2) | >512 | 345.72 ± 51.94 | 20.5 ± 3.05 (≈ 24.6 µM)
